Experiment: recombinant barcode read abundance after kanamycin selection (control-corrected) (log10(CPM+1)); higher = more efficient recombination; sequences stand for … in AGTGCAGAGAAAATCGGCCAGTTTTCTCTGCCTGCAGTCCGCATGCCGT…AGATTTATGCAGCGGACTGCCTTTCTCCCAAAGTGATAAACCGGACAGTATCATGGACCGGTTTTCCCGGTAATCCGTATTTGCAAGGTTGGTTTCACT; site = the 11-nt target
How it was run: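 Pooled E. coli screen pairing targets with IS621 bridge RNA target-binding loops. Each oligo (promoter, target, barcode, J23119-driven first 104 bridge RNA bases) was Gibson-cloned into a vector with the remaining 73 bp and T7-inducible recombinase, then co-electroporated with a donor plasmid. Two replicates each were plated on chloramphenicol/ampicillin LB agar (control) or chloramphenicol/ampicillin/kanamycin with 0.1 mM IPTG. Recombination efficiency is recombinant-junction barcode counts as CPM, averaged, control-corrected, reported as log10(CPM+1).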
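Also: IS621 recombinase and bridge RNA in Escherichia coli cells.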

Going from “CGTGAACCTTGGGTTCTAACCTGTTGCGT (site CGTAAACCTAC)” to “CGTGAACCTTGGGTTCTAACCTGTTGCGT (site CGTCAACCTAC)”, the “recombinant barcode read abundance (log10)” value falls from 2.19 to 0.34.

Compared with “CGTGAACCTTGGGTTCTAACCTGTTGCGT (site CGTGAACCTAC)”, “CGTGAACCTTGGGTTCTAACCTGTTGCGT (site CGTTAACCTAC)” is lower in “recombinant barcode read abundance (log10)” value: 2.79 for the first, 0.751 for the second.

Going from “CGTGCGGCTTGGGTTCTAACCTGTTGCCT (site AGTGCGGCTAG)” to “CGTGCGGCTTGGGTTCTAACCTGTTGCCT (site CGTGCGGCTAG)”, the “recombinant barcode read abundance (log10)” value rises from 0.0463 to 0.486.

Going from “CGTGCGGCTTGGGTTCTAACCTGTTGCCT (site GGTGCGGCTAG)” to “CGTGCGGCTTGGGTTCTAACCTGTTGCCT (site TGTGCGGCTAG)”, the “recombinant barcode read abundance (log10)” value falls from 0.946 to 0.0337.

First: CGTGCGTCTTGGGTTCTAACCTGTTGCCT (site AGTGCGTCTAG)
Second: CGTGCGTCTTGGGTTCTAACCTGTTGCCT (site CGTGCGTCTAG)
The “recombinant barcode read abundance (log10)” value of the first is lower: 0.208 for the first, 0.918 for the second.

Going from “CGTGCGTCTTGGGTTCTAACCTGTTGCCT (site GGTGCGTCTAG)” to “CGTGCGTCTTGGGTTCTAACCTGTTGCCT (site TGTGCGTCTAG)”, the “recombinant barcode read abundance (log10)” value falls from 0.38 to 0.0337.

“CGTGGGCCTTGGGTTCTAACCTGTTGCCT (site CATGGGCCTAG)” and “CGTGGGCCTTGGGTTCTAACCTGTTGCCT (site CCTGGGCCTAG)” are within 0.2 log units of each other in “recombinant barcode read abundance (log10)” value: 0.295 for the first, 0.208 for the second.

“CGTGGGCCTTGGGTTCTAACCTGTTGCCT (site CGTGGGCCTAG)” and “CGTGGGCCTTGGGTTCTAACCTGTTGCCT (site CTTGGGCCTAG)” are within 0.2 log units of each other in “recombinant barcode read abundance (log10)” value: 0.0583 for the first, 0.0694 for the second.

Going from “CGTGGTCCTTGGGTTCTAACCTGTTGCCT (site CGTGGTCCTAA)” to “CGTGGTCCTTGGGTTCTAACCTGTTGCCT (site CGTGGTCCTAC)”, the “recombinant barcode read abundance (log10)” value rises from 0.0142 to 0.413.

Going from “CGTGGTCCTTGGGTTCTAACCTGTTGCCT (site CGTGGTCCTAG)” to “CGTGGTCCTTGGGTTCTAACCTGTTGCCT (site CGTGGTCCTAT)”, the “recombinant barcode read abundance (log10)” value falls from 1.26 to 0.657.

Going from “CGTTAACCTTGGGTTCTAACCTGTTGCGT (site CGTAAACCTAC)” to “CGTTAACCTTGGGTTCTAACCTGTTGCGT (site CGTCAACCTAC)”, the “recombinant barcode read abundance (log10)” value rises from 0.423 to 1.48.

Going from “CGTTAACCTTGGGTTCTAACCTGTTGCGT (site CGTGAACCTAC)” to “CGTTAACCTTGGGTTCTAACCTGTTGCGT (site CGTTAACCTAC)”, the “recombinant barcode read abundance (log10)” value rises from 0.177 to 1.37.

“CGTTAGACTTGGGTTCTAACCTGTTGCCT (site CGTAAGACTAG)” and “CGTTAGACTTGGGTTCTAACCTGTTGCCT (site CGTCAGACTAG)” are within 0.2 log units of each other in “recombinant barcode read abundance (log10)” value: 0.113 for the first, 0.267 for the second.

First: CGTTAGACTTGGGTTCTAACCTGTTGCCT (site CGTGAGACTAG)
Second: CGTTAGACTTGGGTTCTAACCTGTTGCCT (site CGTTAGACTAG)
The “recombinant barcode read abundance (log10)” value of the first is lower: 0.147 for the first, 0.469 for the second.

“CGTTCAACTTGGGTTCTAACCTGTTGCCT (site CGTTCAACTAG)” and “CGTTCAACTTGGGTTCTAACCTGTTGCCT (site CGTTCCACTAG)” are within 0.2 log units of each other in “recombinant barcode read abundance (log10)” value: 0.0537 for the first, 0.0618 for the second.

“CGTTCAACTTGGGTTCTAACCTGTTGCCT (site CGTTCGACTAG)” and “CGTTCAACTTGGGTTCTAACCTGTTGCCT (site CGTTCTACTAG)” are within 0.2 log units of each other in “recombinant barcode read abundance (log10)” value: 0.153 for the first, 0.0864 for the second.

“CGTTCATCTTGGGTTCTAACCTGTTGCCT (site CGATCATCTAG)” and “CGTTCATCTTGGGTTCTAACCTGTTGCCT (site CGCTCATCTAG)” are within 0.2 log units of each other in “recombinant barcode read abundance (log10)” value: 0 for the first, 0.0301 for the second.

“CGTTCATCTTGGGTTCTAACCTGTTGCCT (site CGGTCATCTAG)” and “CGTTCATCTTGGGTTCTAACCTGTTGCCT (site CGTTCATCTAG)” are within 0.2 log units of each other in “recombinant barcode read abundance (log10)” value: 0.0446 for the first, 0.0763 for the second.

First: CGTTCTACTTGGGTTCTAACCTGTTGCCT (site CGTTCAACTAG)
Second: CGTTCTACTTGGGTTCTAACCTGTTGCCT (site CGTTCCACTAG)
The “recombinant barcode read abundance (log10)” value of the first is lower: 0.0719 for the first, 0.286 for the second.

“CGTTCTACTTGGGTTCTAACCTGTTGCCT (site CGTTCGACTAG)” and “CGTTCTACTTGGGTTCTAACCTGTTGCCT (site CGTTCTACTAG)” are within 0.2 log units of each other in “recombinant barcode read abundance (log10)” value: 0.0414 for the first, 0.00743 for the second.

“CGTTGATCTTGGGTTCTAACCTGTTGCCT (site CGTTGATCTAG)” and “CGTTGATCTTGGGTTCTAACCTGTTGCCT (site CGTTGTTCTAG)” are within 0.2 log units of each other in “recombinant barcode read abundance (log10)” value: 0.234 for the first, 0.0674 for the second.

First: CGTTGTCCTTGGGTTCTAACCTGTTGCAA (site CCTTGTCCTCT)
Second: CGTTGTCCTTGGGTTCTAACCTGTTGCAA (site CGTTGTCCTTT)
The “recombinant barcode read abundance (log10)” value of the first is lower: 0.00991 for the first, 0.347 for the second.

“CGTTGTTCTTGGGTTCTAACCTGTTGCCT (site CGTTGATCTAG)” and “CGTTGTTCTTGGGTTCTAACCTGTTGCCT (site CGTTGTTCTAG)” are within 0.2 log units of each other in “recombinant barcode read abundance (log10)” value: 0.0873 for the first, 0.163 for the second.

Going from “CTAAAAGCTTGGGTTCTAACCTGTTGCCA (site CTAAAAGCTTG)” to “CTAAAAGCTTGGGTTCTAACCTGTTGCCA (site TACTCCTCTCC)”, the “recombinant barcode read abundance (log10)” value falls from 0.493 to 0.0219.

Compared with “CTAAAGTCTTGGGTTCTAACCTGTTGCAC (site CTAAAGTCTGG)”, “CTAAAGTCTTGGGTTCTAACCTGTTGCAC (site CTAAAGTCTGT)” is higher in “recombinant barcode read abundance (log10)” value: 0.0578 for the first, 1.51 for the second.

First: CTAAAGTCTTGGGTTCTAACCTGTTGCCC (site CTAAAGTCTGG)
Second: CTAAAGTCTTGGGTTCTAACCTGTTGCCC (site CTAAAGTCTGT)
The “recombinant barcode read abundance (log10)” value of the first is higher: 0.4 for the first, 0.136 for the second.

Going from “CTAAATACTTGGGTTCTAACCTGTTGCTT (site CTAAATACTAA)” to “CTAAATACTTGGGTTCTAACCTGTTGCTT (site CTATATACTAA)”, the “recombinant barcode read abundance (log10)” value falls from 0.383 to 0.107.

First: CTAACCTCTTGGGTTCTAACCTGTTGCAT (site CTAACCTCTAT)
Second: CTAACCTCTTGGGTTCTAACCTGTTGCAT (site CTACCCTCTAT)
The “recombinant barcode read abundance (log10)” value of the first is higher: 2.1 for the first, 0.0596 for the second.

“CTAACCTCTTGGGTTCTAACCTGTTGCAT (site CTAGCCTCTAT)” and “CTAACCTCTTGGGTTCTAACCTGTTGCAT (site CTATCCTCTAT)” are within 0.2 log units of each other in “recombinant barcode read abundance (log10)” value: 0.151 for the first, 0.0287 for the second.

“CTAACTACTTGGGTTCTAACCTGTTGCTT (site AGTTGGCCTCT)” and “CTAACTACTTGGGTTCTAACCTGTTGCTT (site CTAACTACTAA)” are within 0.2 log units of each other in “recombinant barcode read abundance (log10)” value: 0.41 for the first, 0.252 for the second.

“CTAACTCCTTGGGTTCTAACCTGTTGCCT (site ATACCTCCTAG)” and “CTAACTCCTTGGGTTCTAACCTGTTGCCT (site CTAACTCCTAG)” are within 0.2 log units of each other in “recombinant barcode read abundance (log10)” value: 0.242 for the first, 0.401 for the second.

Going from “CTAACTCCTTGGGTTCTAACCTGTTGCTG (site CTAACTCCTCA)” to “CTAACTCCTTGGGTTCTAACCTGTTGCTG (site CTAACTGCTCC)”, the “recombinant barcode read abundance (log10)” value rises from 0.12 to 0.524.

First: CTAACTGCTTGGGTTCTAACCTGTTGCGG (site CTAACTCCTCA)
Second: CTAACTGCTTGGGTTCTAACCTGTTGCGG (site CTAACTGCTCC)
The “recombinant barcode read abundance (log10)” value of the first is lower: 0.0417 for the first, 0.633 for the second.

Compared with “CTAACTGCTTGGGTTCTAACCTGTTGCGT (site CTAACTGCTAC)”, “CTAACTGCTTGGGTTCTAACCTGTTGCGT (site TCCCAAACTGT)” is lower in “recombinant barcode read abundance (log10)” value: 0.96 for the first, 0.177 for the second.

Compared with “CTAAGAACTTGGGTTCTAACCTGTTGCCT (site CTAAGAACTAA)”, “CTAAGAACTTGGGTTCTAACCTGTTGCCT (site CTAAGAACTAC)” is higher in “recombinant barcode read abundance (log10)” value: 0.0228 for the first, 1.05 for the second.

Going from “CTAAGAACTTGGGTTCTAACCTGTTGCCT (site CTAAGAACTAG)” to “CTAAGAACTTGGGTTCTAACCTGTTGCCT (site CTAAGAACTAT)”, the “recombinant barcode read abundance (log10)” value falls from 0.604 to 0.

“CTAAGATCTTGGGTTCTAACCTGTTGCCT (site CAAAGATCTAG)” and “CTAAGATCTTGGGTTCTAACCTGTTGCCT (site CCAAGATCTAG)” are within 0.2 log units of each other in “recombinant barcode read abundance (log10)” value: 0.0172 for the first, 0.119 for the second.

“CTAAGATCTTGGGTTCTAACCTGTTGCCT (site CGAAGATCTAG)” and “CTAAGATCTTGGGTTCTAACCTGTTGCCT (site CTAAGATCTAG)” are within 0.2 log units of each other in “recombinant barcode read abundance (log10)” value: 0.0614 for the first, 0.169 for the second.

“CTAAGCTCTTGGGTTCTAACCTGTTGCTA (site CTAAGCTCTAA)” and “CTAAGCTCTTGGGTTCTAACCTGTTGCTA (site CTAAGCTCTCA)” are within 0.2 log units of each other in “recombinant barcode read abundance (log10)” value: 0.0436 for the first, 0.0617 for the second.

First: CTAAGCTCTTGGGTTCTAACCTGTTGCTA (site CTAAGCTCTGA)
Second: CTAAGCTCTTGGGTTCTAACCTGTTGCTA (site CTAAGCTCTTA)
The “recombinant barcode read abundance (log10)” value of the first is lower: 0.172 for the first, 0.939 for the second.

Compared with “CTAAGGACTTGGGTTCTAACCTGTTGCTA (site CGAAGGACTTA)”, “CTAAGGACTTGGGTTCTAACCTGTTGCTA (site CTAAGGACTTA)” is higher in “recombinant barcode read abundance (log10)” value: 0.0114 for the first, 1.11 for the second.

First: CTAAGGCCTTGGGTTCTAACCTGTTGCAT (site AAGTCCTCTCA)
Second: CTAAGGCCTTGGGTTCTAACCTGTTGCAT (site CTAAGGCCTAT)
The “recombinant barcode read abundance (log10)” value of the first is lower: 0.428 for the first, 1.85 for the second.

First: CTAAGGGCTTGGGTTCTAACCTGTTGCTG (site CTAAGGACTAA)
Second: CTAAGGGCTTGGGTTCTAACCTGTTGCTG (site CTAAGGGCTCA)
The “recombinant barcode read abundance (log10)” value of the first is lower: 0.314 for the first, 0.772 for the second.

— the supplement of paper PMC11208160
